The source of these data is EP4650002A1 (Ludwig-Maximilians-Universität, priority 2024, dated 2025).

For the assay, the target named is T1, human TLX (Homo sapiens, UniProt Q9Y466).
T1 construct: expressed in transfected cells; host or cells: HEK293T
Nature of the assay: Gal4 hybrid reporter gene assay (TLX modulation). Particulars: for relative reporter activity: DMSO control = 1; for EC50: Gal4-TLX hybrid reporter in HEK293T cells, 16 h incubation. More on the design: key to relative reporter activity: fraction of DMSO control (DMSO = 1). In kind it is cell-based. On the procedure: In the Tables, the TLX relative reporter activity is expressed as EC50 (in µM) for each listed compound. "EC50" refers to a measure of the concentration of a compound which induces a biological response halfway between the baseline and maximum after a specified exposure time. […] The EC50 is measured via a hybrid reporter gene assay, employing the transfection of a reporter (firefly luciferase with Gal4 response element), a control gene (Renilla luciferase), a transcriptional activator (Gal4-VP16) and a hybrid receptor consisting of the TLX ligand binding domain (LBD) and the Gal4 DNA binding domain (DBD).
Hybrid reporter gene assays. […] After 24 h, medium was changed to Opti-MEM without supplements and cells were transiently transfected using Lipofectamine LTX reagent (Invitrogen, Carlsbad, CA, USA) according to the manufacturer's protocol. Five hours after transfection, cells were incubated with the test compounds in Opti-MEM supplemented with penicillin (100 U/mL), streptomycin (100 µg/mL) and 0.1% DMSO for 16 h before luciferase activity was measured using the Dual-Glo Luciferase Assay System (Promega) according to the manufacturer's protocol on a Tecan Spark luminometer (Tecan Deutschland GmbH, Crailsheim, Germany). Firefly luminescence was divided by Renilla luminescence and multiplied by 1000 resulting in relative light units (RLU) to normalize for transfection efficiency and cell growth. Fold activation was obtained by dividing the mean RLU of test compound by the mean RLU of the untreated control. All samples were tested in at least three biologically independent experiments in duplicates. For dose-response curve fitting and calculation of EC50 values, the equation "[Agonist] vs. response -- Variable slope (four parameters)" was used in GraphPad Prism (version 7.00, GraphPad Software, La Jolla, CA, USA).
In general terms: A reporter such as luciferase makes a cellular process visible.

Where [1] appears, read: minimal remaining or maximum reporter activity after treatment, in brackets below the EC50, <1 agonism, >1 inverse agonism.

T1 sequence (Q9Y466 155-383 limits assumed): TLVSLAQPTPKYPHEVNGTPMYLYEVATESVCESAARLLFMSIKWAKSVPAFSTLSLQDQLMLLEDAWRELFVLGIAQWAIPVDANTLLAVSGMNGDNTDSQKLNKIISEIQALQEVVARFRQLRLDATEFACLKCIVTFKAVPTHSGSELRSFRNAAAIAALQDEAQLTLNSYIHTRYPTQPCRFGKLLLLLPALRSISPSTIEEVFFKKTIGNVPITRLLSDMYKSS

`Cn1cnc(-c2cc(N)cc(C(F)(F)F)c2)n1` [compound 44, 3-(1-methyl-1H-1,2,4-triazol-3-yl)-5-(trifluoromethyl)aniline]: where the note is “at 100 µM”, the relative reporter activity result is reported as “(0.63±0.04 at 100 µM)”.

As for `CC(=O)c1cc(-c2cc(NC(=O)c3ccnc4ccccc34)cc(C(F)(F)F)c2)cs1` [compound 61, N-(3-(5-acetylthiophen-3-yl)-5-(trifluoromethyl)phenyl)quinoline-4-carboxamide], the EC50 (as a rule, the midpoint of the concentration-response curve) worked out at 1.1 ± 0.3 µM. For the same molecule, the relative reporter activity under setting [1] came out at 0.17±0.08.

`Cc1nn(C)c(C)c1-c1cc(N)cc(C(F)(F)F)c1` [compound 41, 3-(trifluoromethyl)-5-(1,3,5-trimethyl-1H-pyrazol-4-yl)aniline]: a half-maximal response (EC50) required 4.2 ± 0.9 µM. For the same molecule, under setting [1], the relative reporter activity was 0.34±0.09.

Molecule `Cc1cc(-c2cc(N)cc(C(F)(F)F)c2)ccn1` [compound 74, 3-(2-methylpyridin-4-yl)-5-(trifluoromethyl)aniline] registered an EC50 of 6.6 ± 2.1 µM.

Consider `Cc1cn(-c2cc(NC(=O)c3ccc(Cl)c(Cl)c3)cc(C(F)(F)F)c2)cn1` [compound 16, 3,4-dichloro-N-(3-(4-methyl-1H-imidazol-1-yl)-5-(trifluoromethyl)phenyl)-benzamide], for which a half-maximal effect (EC50) was put at 2.1 ± 0.9 µM. Further, under setting [1], the relative reporter activity is recorded as 0.33±0.12.

For the molecule `Nc1cc(-c2ccc3sccc3c2)cc(C(F)(F)F)c1` [compound 92, 3-(benzo[b]thiophen-5-yl)-5-(trifluoromethyl)aniline], the relative reporter activity entry (at 10 µM) was “inactive at 10 µM”.

For the molecule `Nc1cc(-c2ccc3c(c2)CCN3)cc(C(F)(F)F)c1` [compound 96, 3-(indolin-5-yl)-5-(trifluoromethyl)aniline], the midpoint of the response, the EC50, lay at 2.3 ± 0.7 µM.

In turn, `Cc1cc(-c2cc(NC(=O)c3cc(C)[nH]n3)cc(C(F)(F)F)c2)ccn1` [compound 86, 5-methyl-N-(3-(2-methylpyridin-4-yl)-5-(trifluoromethyl)phenyl)-1H-pyrazole-3-carboxamide] yielded a concentration giving a half-maximal response (EC50) of 3.3 ± 0.7 µM. This molecule also yielded a relative reporter activity under setting [1] of 0.32±0.03.

Turning to `Cc1cc(-c2cccc(N)c2)ccn1` [compound 104, 3-(2-methylpyridin-4-yl)aniline], the relative reporter activity result (at 50 µM) is given as “(0.73±0.06 at 50 µM)”.

Regarding `Cc1cc(-c2cc(N)cc(C(F)(F)F)c2)cc(C)n1` [compound 88, 3-(2,6-dimethylpyridin-4-yl)-5-(trifluoromethyl)aniline], the EC50 is 1.6 ± 0.8 µM.

Turning to `Cc1cc(N)cc(-c2ccnc(C)c2)c1` [compound 106, 3-methyl-5-(2-methylpyridin-4-yl)aniline], under “at 30 µM”, the relative reporter activity entry is recorded as “(0.44±0.09 at 30 µM)”.

With `Cc1noc(C)c1-c1cc(N)cc(C(F)(F)F)c1` [compound 42, 3-(3,5-dimethylisoxazol-4-yl)-5-(trifluoromethyl)aniline], the relative reporter activity entry (at 10 µM) is reported as “(0.70±0.07 at 10 µM)”.

As to `Cc1cc(-c2cc(NC(=O)C(O)(c3ccccc3)C3CCCC3)cc(C(F)(F)F)c2)ccn1` (stereo not shown) [compound 84, 2-cyclopentyl-2-hydroxy-N-(3-(2-methylpyridin-4-yl)-5-(trifluoromethyl)phenyl)-2-phenylacetamide], the relative reporter activity entry (at 3 µM) is listed as “(0.26±0.05 at 3 µM)”.

As to `Cc1ccc(-c2cc(N)cc(C(F)(F)F)c2)cc1` [compound 67, 4'-methyl-5-(trifluoromethyl)-[1, 1 '-biphenyl]-3-amine], the relative reporter activity result (at 30 µM) was “inactive at 30 µM”.

Consider `Cc1cc(-c2cc(N)cc3[nH]ccc23)ccn1` [compound 115, 4-(2-methylpyridin-4-yl)-1H-indol-6-amine], for which a half-maximal response (EC50) required 3.8 ± 0.7 µM.

`Cn1ccc2cc(-c3cc(N)cc(C(F)(F)F)c3)ccc21` [compound 90, 3-(1-methyl-1H-indol-5-yl)-5-(trifluoromethyl)aniline] showed an EC50 of 1.1 ± 0.1 µM.

As for `Cn1cc(-c2cc(N)cc(C(F)(F)F)c2)cn1` [compound 38, 3-(1-methyl-1H-pyrazol-4-yl)-5-(trifluoromethyl)aniline], the concentration giving a half-maximal response (EC50) came to 9.5 ± 4.4 µM. Moreover, the relative reporter activity under setting [1] stood at 0.43±0.11.

Take `Nc1cc(-c2nccs2)cc(C(F)(F)F)c1` [compound 53, 3-(thiazol-2-yl)-5-(trifluoromethyl)aniline]: the relative reporter activity entry (at 100 µM) is recorded as “(0.63±0.10 at 100 µM)”.

`COc1ccc(C(=O)Nc2cc(-n3cnc(C)c3)cc(C(F)(F)F)c2)cc1` [compound 17, 4-methoxy-N-(3-(4-methyl-1H-imidazol-1-yl)-5-(trifluoromethyl)phenyl)benzamide]: the EC50 was 5.2 ± 0.4 µM. Also, under setting [1], the relative reporter activity is reported as 0.42±0.03.

For the molecule `Nc1cc(-c2ccncc2)cc(C(F)(F)F)c1` [compound 73, 3-(pyridin-4-yl)-5-(trifluoromethyl)aniline], it took 13 ± 4 µM to reach a half-maximal effect (EC50). Besides, the relative reporter activity under setting [1] is given as 0.18±0.13.

Turning to `Cc1ccc(-c2cc(N)cc(C(F)(F)F)c2)s1` [compound 55, 3-(5-methylthiophen-2-yl)-5-(trifluoromethyl)aniline], the relative reporter activity (at 30 µM) is recorded as 2.2±0.6.

Consider `Cc1cccc(-c2cc(N)cc(C(F)(F)F)c2)c1` [compound 72, 3'-methyl-5-(trifluoromethyl)-[1,1'-biphenyl]-3-amine], for which the relative reporter activity result (at 30 µM) is “inactive at 30 µM”.

For the molecule `C=C(C(=O)Nc1cc(-c2ccnc(C)c2)cc(C(F)(F)F)c1)c1ccc2cc(OC)ccc2c1` [compound 83, 2-(6-methoxynaphthalen-2-yl)-N-(3-(2-methylpyridin-4-yl)-5-(trifluoromethyl)-phenyl)propenamide], for the setting “at 10 µM”, the relative reporter activity result is recorded as “(0.66±0.07 at 10 µM)”.

Consider `Cc1cn(-c2cc(NC(=O)c3ccc(Cl)cc3)cc(C(F)(F)F)c2)cn1` [compound 15, 4-chloro-N-(3-(4-methyl-1H-imidazol-1-yl)-5-(trifluoromethyl)phenyl)benzamide], for which the response was half-maximal at 2.3 ± 0.3 µM (EC50). This molecule showed a relative reporter activity under setting [1] of 0.41±0.05.

Turning to `Cc1cnn(-c2cc(N)cc(C(F)(F)F)c2)c1` [compound 37, 3-(4-methyl-1H-pyrazol-1-yl)-5-(trifluoromethyl)aniline], the relative reporter activity entry (at 100 µM) was “(0.48±0.09 at 100 µM)”.

As for `Cc1cc(-c2cc(N)cc(C#N)c2)ccn1` [compound 109, 3-amino-5-(2-methylpyridin-4-yl)benzonitrile], the response was half-maximal at 5.9 ± 2.2 µM (EC50). This molecule also came in with a relative reporter activity under setting [1] of 0.40±0.11.

Turning to `Cc1cc(-c2cc(NC(=O)C3CCCNC3)cc(C(F)(F)F)c2)ccn1` (stereo not shown) [compound 85, N-(3-(2-methylpyridin-4-yl)-5-(trifluoromethyl)phenyl)piperidine-3-carboxamide], where the note is “at 20 µM”, the relative reporter activity result is on record as “(0.15±0.01 at 20 µM)”.

As to `Cn1cc(-c2cc(N)cc(C(F)(F)F)c2)c2ccccc21` [compound 51, 3-(1-Methyl-1H-indol-3-yl)-5-(trifluoromethyl)aniline], the EC50 came out at 9.1 ± 0.7 µM.

`Cc1cn(-c2cc(NC(=O)c3ccc(C(F)(F)F)cc3)cc(C(F)(F)F)c2)cn1` [compound 19, N-(3-(4-mefhyl-1H-imidazol-1-yl)-5-(trifluoromefhyl)phenyl)-4-(frifluoromethyl)-benzamide] returned a concentration giving a half-maximal response (EC50) of 3.3 ± 1.2 µM. Under setting [1], this molecule yielded a relative reporter activity of 0.59±0.10.

In turn, `Nc1cc(-c2cnoc2)cc(C(F)(F)F)c1` [compound 40, 3-(isoxazol-4-yl)-5-(trifluoromethyl)aniline] returned an EC50 of 3.2 ± 1.2 µM. The molecule also had a relative reporter activity under setting [1] of 0.47±0.06.

Take `Cn1cc(-c2cccc(N)c2)cn1` [compound 105, 3-(1-methyl-1H-pyrazol-4-yl)aniline]: the relative reporter activity result (at 30 µM) was “inactive at 30 µM”.

Consider `Cc1cc(-c2cc(NC(=O)c3ccc4ccccc4c3)cc(C(F)(F)F)c2)ccn1` [compound 80, N-(3-(2-methylpyridin-4-yl)-5-(trifluoromethyl)phenyl)-2-naphthamide], for which a half-maximal response (EC50) required 0.97 ± 0.22 µM. The relative reporter activity under setting [1] was determined as 0.29±0.06.

Take `Cc1cc(-c2cc(NC(=O)c3ccc(Cl)c(Cl)c3)cc(C(F)(F)F)c2)ccn1` [compound 78, 3,4-dichloro-N-(3-(2-methylpyridin-4-yl)-5-(trifluoromethyl)phenyl)benzamide]: a half-maximal effect (EC50) was put at 0.6 ± 0.2 µM. This molecule also had a relative reporter activity under setting [1] of 0.51±0.5.

Regarding `CCOc1cc(C(=O)Nc2cc(-n3cnc(C)c3)cc(C(F)(F)F)c2)c2ccccc2n1` [compound 8, 2-ethoxy-N-(3-(4-methyl-1H-imidazol-1-yl)-5-(trifluoromethyl)phenyl)quinoline-4-carboxamide], the EC50 came out at 1.1 ± 0.3 µM. The molecule also registered a relative reporter activity under setting [1] of 0.57±0.04.

`Nc1cc(-c2cccc3[nH]ccc23)cc(C(F)(F)F)c1` [compound 99, 3-(1H-Indol-4-yl)-5-(trifluoromethyl)aniline] registered an EC50 of 3 ± 0.2 µM.
